Reference: patent US20260115331A1, “PET IMAGING OF BACTERIAL INFECTION WITH A PET PROBE” (Mayo Foundation for Medical Education and Research, priority 2022, published 2026)

Assays:
[1] = test system: Methicillin-resistant Staphylococcus aureus (MRSA); assay type: in vivo, rats; conditions: PET image analysis, p<0.05 (FIG. 30)
[2] = Biodistribution in normal mice at 120 min post injection; assay type: in vivo; conditions: N = 5, 120 min post injection
Source text: The feasibility of the developed PET probe [^68Ga]Ga-H3P2O8 in a mouse model of thigh infection as well as uptake in E. coli has been evaluated. […] The biodistribution of developed PET probe in normal and in thigh infected mice has been assessed (see FIG. 11). […] Micro-PET imaging of normal and thigh-infected mice has also been performed. The site of bacterial infection was evident on micro-PET images (see FIG. 13) with arrows in contrast to the non-infected group of mice. The bacterial site of infection on micro-PET images was confirmed by bacterial culture performed on the biopsied sample. Micro-PET imaging was performed at different time intervals to optimize imaging time.

[3] = test system: Methicillin-resistant Staphylococcus aureus (MRSA); assay: Ex vivo biodistribution SUV ratios (operated tibia/contralateral tibia), MRSA infection and inflammation; assay type: in vivo, rats; conditions: 120 minutes post-injection, p<0.05 (FIG. 31)
Experimental: The acquired PET images were visualized and analyzed for quantifying standardized uptake value (SUV) using image analysis software—MIM 7 software and PMOD. Following final imaging at 120 minutes post-injection, the animal was euthanized, and major organs and infected and inflamed tibia were extracted for gamma counting for ex-vivo biodistribution analysis (see FIG. 22). At the end of last imaging session, rats were euthanized by cardiectomy, and the operated tibia with K-wire or contralateral tibia were aseptically removed. Following removal, tibias were weighed, and Ga-68 radioactivity was counted in 2480 Wizard2 automatic gamma counter for ex-vivo biodistribution assessment. The tibias were then frozen to −80° C. […] After 24 hours of incubation at 37° C., the bacterial cultures in tibia suspension and K-wire suspension were quantified. […]
Turning now to FIG. 28, the localization of [^68Ga]Ga-H3P2O8 at an infection was investigated in comparison to [^68Ga]Ga-Citrate and [^18F]FDG. The uptake of [^68Ga]Ga-H3P2O8, [^68Ga]Ga-citrate and [^18F]FDG at 120 minutes post-injection in areas of Methicillin-resistant Staphylococcus aureus (MRSA) infection was determined by ex vivo biodistribution. Additionally, the uptake of [^68Ga]Ga-H3P2O8, [^68Ga]Ga-citrate and [^18F]FDG at 120 minutes post-injection in an inflammation was determined similarly. […]

E coli = assay: Biodistribution in lung infected mice (E. coli) at 120 min post injection; assay type: in vivo
[4] = n = 3, 2 h post infection with E coli

Compound: O=P(O)(O)[O][Ga]1[O]P(=O)(O)[O]1 [[^68Ga]Ga-H3P2O8, [^68Ga]Ga-hydrogen bisphosphate]
- mean SUV for MRSA-infected animal compared with animals infected with K. pneumoniae or P. aeruginosa [1]: significantly higher
- SUV ± STD, Adipose ([2]; Adipose): 0.76 ± 0.38 SUV
- SUV ± STD, Bladder ([2]; Bladder): 2.41 ± 2.84 SUV
- SUV ± STD, Blood ([2]; Blood): 2.76 ± 0.97 SUV
- SUV ± STD, Bone ([2]; Bone): 1.88 ± 1.26 SUV
- SUV ± STD, Brain ([2]; Brain): 0.07 ± 0.02 SUV
- SUV ± STD, Cecum ([2]; Cecum): 1.33 ± 0.60 SUV
- SUV ± STD, Eye ([2]; Eye): 2.30 ± 1.41 SUV
- SUV ± STD, Feces ([2]; Feces): 0.82 ± 0.28 SUV
- SUV ± STD, Gut ([2]; Gut): 1.15 ± 0.29 SUV
- SUV ± STD, Heart ([2]; Heart): 0.87 ± 0.30 SUV
- SUV ± STD, Kidney-1 ([2]; Kidney-1): 1.11 ± 0.29 SUV
- SUV ± STD, Kidney-2 ([2]; Kidney-2): 0.71 ± 0.20 SUV
- SUV ± STD, Liver ([2]; Liver): 1.05 ± 0.42 SUV
- SUV ± STD, Lung-1 ([2]; Lung-1): 2.17 ± 0.85 SUV
- SUV ± STD, Lung-2 ([2]; Lung-2): 3.22 ± 2.29 SUV
- SUV ± STD, Normal Thigh ([2]; Normal Thigh): 0.52 ± 0.23 SUV
- SUV ± STD, Skin ([2]; Skin): 0.71 ± 0.38 SUV
- SUV ± STD, Spleen ([2]; Spleen): 0.70 ± 0.16 SUV
- SUV ± STD, Stomach ([2]; Stomach): 0.49 ± 0.24 SUV
- uptake as SUV ratios (Operated tibia/contralateral tibia), MRSA vs P. aeruginosa [3]: significant difference in uptake
- SUV ± STD, Adipose (E coli; [4]): 0.85 ± 0.64 SUV
- SUV ± STD, Bladder (E coli; [4]): 3.11 ± 2.62 SUV
- SUV ± STD, Blood (E coli; [4]): 2.09 ± 1.31 SUV
- SUV ± STD, Bone (E coli; [4]): 2.70 ± 0.43 SUV
- SUV ± STD, Brain (E coli; [4]): 0.05 ± 0.01 SUV
- SUV ± STD, Cecum (E coli; [4]): 1.61 ± 1.29 SUV
- SUV ± STD, Eye (E coli; [4]): 1.42 ± 1.91 SUV
- SUV ± STD, Feces (E coli; [4]): 1.39 ± 1.10 SUV
- SUV ± STD, Gut (E coli; [4]): 1.93 ± 0.40 SUV
- SUV ± STD, Heart (E coli; [4]): 0.73 ± 0.07 SUV
- SUV ± STD, Kidney-1 (E coli; [4]): 0.92 ± 0.24 SUV
- SUV ± STD, Kidney-2 (E coli; [4]): 1.10 ± 0.09 SUV
- SUV ± STD, Liver (E coli; [4]): 0.86 ± 0.08 SUV
- SUV ± STD, Lung-1 (E coli; [4]): 2.98 ± 1.02 SUV
- SUV ± STD, Lung-2 (E coli; [4]): 2.56 ± 1.82 SUV
- SUV ± STD, Normal Thigh (E coli; [4]): 0.31 ± 0.18 SUV
- SUV ± STD, Skin (E coli; [4]): 1.46 ± 0.41 SUV
- SUV ± STD, Spleen (E coli; [4]): 0.73 ± 0.03 SUV
- SUV ± STD, Stomach (E coli; [4]): 0.46 ± 0.07 SUV
- SUV ± STD, Adipose (E coli; n = 4, 24 h post infection): 1.13 ± 0.34 SUV
- SUV ± STD, Bladder (E coli; n = 4, 24 h post infection): 4.04 ± 5.22 SUV
- SUV ± STD, Blood (E coli; n = 4, 24 h post infection): 2.75 ± 0.39 SUV
- SUV ± STD, Bone (E coli; n = 4, 24 h post infection): 2.65 ± 1.75 SUV
- SUV ± STD, Brain (E coli; n = 4, 24 h post infection): 0.11 ± 0.02 SUV
- SUV ± STD, Cecum (E coli; n = 4, 24 h post infection): 1.59 ± 0.35 SUV
- SUV ± STD, Eye (E coli; n = 4, 24 h post infection): 1.39 ± 1.17 SUV
- SUV ± STD, Feces (E coli; n = 4, 24 h post infection): 0.71 ± 0.24 SUV
- SUV ± STD, Gut (E coli; n = 4, 24 h post infection): 1.72 ± 0.31 SUV
- SUV ± STD, Heart (E coli; n = 4, 24 h post infection): 1.04 ± 0.28 SUV
- SUV ± STD, Kidney-1 (E coli; n = 4, 24 h post infection): 1.69 ± 0.66 SUV
- SUV ± STD, Kidney-2 (E coli; n = 4, 24 h post infection): 1.44 ± 0.37 SUV
- SUV ± STD, Liver (E coli; n = 4, 24 h post infection): 1.89 ± 0.47 SUV
- SUV ± STD, Lung-1 (E coli; n = 4, 24 h post infection): 1.52 ± 0.29 SUV
- SUV ± STD, Lung-2 (E coli; n = 4, 24 h post infection): 1.46 ± 0.51 SUV
- SUV ± STD, Normal Thigh (E coli; n = 4, 24 h post infection): 0.33 ± 0.16 SUV
- SUV ± STD, Skin (E coli; n = 4, 24 h post infection): 1.08 ± 0.42 SUV
- SUV ± STD, Spleen (E coli; n = 4, 24 h post infection): 1.75 ± 0.56 SUV
- SUV ± STD, Stomach (E coli; n = 4, 24 h post infection): 0.34 ± 0.13 SUV
